# Test results published in patent US20240158754A1, “REDUCING HIGH MANNOSE GLYCAN PROTEIN EXPRESSION USING GUANOSINE 5'-MONOPHOSPHATE” (MERCK SHARP & DOHME LLC, priority 2021, published 2024).
# “Also recorded” adds a separate entry of the source.
# Assays:
# Format in all cases: cell-based, Chinese hamster
# [1] = tested on: recombinant CHO cell lines expressing monoclonal antibodies (mAb A, mAb B, or mAb C); test: 10-day fed-batch assay with GMP (Example 2), statements for all cell lines
# Procedure: (§1) Cells were cultured in Merck proprietary chemically defined media in increasing volume to obtain sufficient number of cells for inoculation. For cell lines expressing mAb A and mAb B, cells were seeded at 0.5×10^6 cells per mL into Merck proprietary chemically defined production medium in two 1 L Erlenmeyer flasks at a final volume of 250 mL in each flask. For cell line expressing mAb C, cells were seeded at 1.0×10^6 cells per mL into production medium in two 1 L Erlenmeyer flasks at a final volume of 250 mL in each flask. Cells were incubated at 36.5° C., with agitation at 100 rpm, in presence of 5% CO2, and humidity ≥70%. Merck proprietary chemically defined nutrient feed media were added to all the cultures on day 3, day 6, and day 8. On Day 6, cells from both 1 L flasks for each cell line were pooled and then aliquoted in 125 mL Erlenmeyer flasks with 30 mL working volume, respectively. A 200 mM stock solution of GMP was prepared by adding Guanosine 5′-monophosphate disodium salt hydrate (Sigma Aldrich, St. Louis, MO) in purified water. After the cells were aliquoted in separate 125 mL test flasks on day 6, GMP was added to the cultures at final concentration of 1 mM or 10 mM. No change in pH and osmolality was observed as a result of the GMP addition. A control condition with no added GMP was also created for each cell line. All conditions were run with two replicates. All cultures were harvested on day 10.
# (§2) Cell culture parameters were analyzed on day 0, 3, 6, 8 and 10, and the corresponding spent medium supernatants were evaluated for antibody titer, charge variants, and glycan analysis on day 10 to assess the effect of GMP on cell growth, viability, titer, and glycan profile of the recombinant antibodies. Cell density and viability were measured using the trypan blue exclusion method with Cedex Bio Analyzer (Roche Diagnostics GmbH, Mannheim, Germany). Culture pH was measured using ABL80 Blood/Gas Analyzer (Radiometer, Denmark). Cell culture metabolites were measured using RX Imola (Randox Laboratories Ltd. Crumlin, UK) and osmolality was measured using a micro-Osmometer 2020 (Advanced Instruments, Norwood, MA).
# (§3) Antibody titer was analyzed using a mAb-specific reverse-phase high-performance liquid chromatography (HPLC) or analytical Protein A HPLC method. Multiple product quality attributes were analyzed on harvested cell-culture fluid (HCCF) after a Protein A chromatography step. Analysis of HMW species was performed by size-exclusion chromatography, analysis of charge variants was performed by ion exchange chromatography, and analysis of N-glycan was performed by ultra-performance liquid chromatography (UPLC) with 2-aminobenzamide (2-AB) labeling.
# [2] = tested on: recombinant CHO cell line expressing mAb C; test: 10-day fed-batch assay with GMP (Example 2)
# Procedure: as §1, §2, §3
# [3] = tested on: recombinant CHO cell line expressing mAb B; test: 10-day fed-batch assay with GMP (Example 2)
# Procedure: as §1, §2, §3
# [4] = tested on: recombinant CHO cell line expressing mAb A; test: 10-day fed-batch assay with GMP (Example 2)
# Procedure: as §1, §2, §3
# [5] = tested on: recombinant CHO cell line expressing mAb C; test: 10-day fed-batch assay of eighteen components (Example 1); settings: mAb C cell line (Table 4, untitled)
# Procedure: (§4) Experiment was executed by dividing into 6-blocks. In each experiment block, 3 unique test components were assessed and control conditions with no added test component were included for all three cell lines. Cells were cultured in Merck proprietary chemically defined media in increasing volume to obtain sufficient number of cells for inoculation. […] Merck proprietary chemically defined nutrient feed media were added to all the cultures on day 3, day 6, and day 8. On Day 6, cells from both 1 L flasks for each cell line were pooled and then aliquoted in 125 mL Erlenmeyer flasks with 30 mL working volume, respectively. Stock solutions for each of the tested component were prepared as defined in Table 1 below, and all components were ordered from Sigma Aldrich (St. Louis, MO). Component 6 is GMP. All solutions were prepared in purified water. For each cell line, components were added to the cultures at final concentration at a lower and higher concentrations as per Table 1, respectively, on day 6 of the fed-batch culture. […] A control condition with no added test component was also created for each cell line. All conditions were run with two replicates. All cultures were harvested on day 10.
# (§5) Cell culture parameters were analyzed on day 0, 3, 6, 8 and 10, and the corresponding spent medium supernatants were evaluated for antibody titer, charge variants and glycan analysis on day 10 to assess the effect of added components on cell growth, viability, titer, aggregation, charge variants and glycan profile of the recombinant antibodies. Cell density and viability were measured using the trypan blue exclusion method with Cedex Bio Analyzer (Roche Diagnostics GmbH, Mannheim, Germany). Culture pH was measured using ABL80 Blood/Gas Analyzer (Radiometer, Denmark).
# as §3
# (§6) Data generated from all 6 blocks for all tested components (excluding component 9 and 12) were transformed using a dimensionless number, which is termed as Concentration Impact Factor, and abbreviated as Cf. Cf provides a score value for impact of change in component's concentration on desired response when tested at different concentrations. The equation used to transform data to calculate Cf is described below as equation 1. The first part of the equation represents a directional vector, which determines whether increasing the component concentration from a lower value to a higher value results in a positive or negative response for the measure attribute. The second part of the equation then calculates the magnitude of that change as the concentration changes from low to high.
# (§7) wherein, • Cf. Concentration impact factor (dimensionless number) • H: Response for a measured attribute when component is added at a higher concentration • L: Response for a measured attribute when component is added at a lower concentration • C: Response for a measured attribute […] • hc: high concentration (mM) of the component added • lc: low concentration (mM) of the component added
# [6] = tested on: recombinant CHO cell line expressing mAb B; test: as above
# Procedure: as §4, §5, §3, §6, §7
# [7] = tested on: recombinant CHO cell line expressing mAb A; test: as above; settings: for Relative IVCC (% to Control): added day 6, harvest day 10; for Relative IVCC (% to Control) / Relative Titer (% to Control) / Relative Viability (% to Control): mAb A cell line
# Procedure: as §4, §5, §3, §6, §7
# [8] = tested on: recombinant CHO cell lines expressing monoclonal antibodies (mAb A, mAb B, or mAb C); test: 10-day fed-batch assay of eighteen components (Example 1), statements for all cell lines; settings: among the 18 tested components
# Procedure: Experiment was executed by dividing into 6-blocks. In each experiment block, 3 unique test components were assessed and control conditions with no added test component were included for all three cell lines. Cells were cultured in Merck proprietary chemically defined media in increasing volume to obtain sufficient number of cells for inoculation. For cell lines expressing mAb A and mAb B, cells were seeded at 0.5×10^6 cells per mL into Merck proprietary chemically defined production medium in two 1 L Erlenmeyer flasks at a final volume of 250 mL in each flask. […]
# as §2, with “titer, charge variants and glycan” for “titer, charge variants, and glycan”, “effect of added components on cell” for “effect of GMP on cell”, “viability, titer, aggregation, charge variants and glycan” for “viability, titer, and glycan”, “Norwood, MA). […]” for “Norwood, MA).”
# [9] = Higher Concentration per Table 1
# [10] = Lower Concentration per Table 1
smiles,measurement,setting,value
"Nc1nc2c(ncn2[C@@H]2O[C@H](COP(=O)(O)O)[C@@H](O)[C@H]2O)c(=O)[nH]1 [Component 6, Guanosine 5′-monophosphate]",higher order mannose structures,[1],slight decrease
same,impact on cell culture parameters,[1]; GMP 1 mM,no impact
same,HMG content on the recombinant antibodies,[1]; GMP 1 mM and 10 mM,dose dependent decrease
same,high mannose,"[1]; GMP 10 mM, all cell lines",large decreases
same,Man 5 content,"[1]; mAb A, mAb B, and mAb C, listed as GMP",major high mannose species downregulated; also recorded: dose dependent decrease
same,"cell culture performance parameters (IVCC, final viability, titer, ammonia, lactate)",[1]; three CHO cell lines,did not significantly affect
same,Cumulative Titer,[2]; GMP 1 mM,690 mg/L
same,Final viability,[2]; GMP 1 mM,98.5%
same,IVCC,[2]; GMP 1 mM,86.5 10^6 cells · Day/mL
same,high mannose glycans,[2]; GMP 1 mM,slight decrease
same,Cumulative Titer,[2]; GMP 10 mM,701 mg/L
same,Final viability,[2]; GMP 10 mM,86.3%
same,IVCC,[2]; GMP 10 mM,71.1 10^6 cells · Day/mL
same,cell growth,[2]; GMP 10 mM,considerable decrease
same,"Man 5 (HMG level, value relative to control)",[2]; GMP final concentration 1 mM,0.98
same,"Man 5 (HMG level, value relative to control)",[2]; GMP final concentration 10 mM,0.68
same,Cumulative Titer,[3]; GMP 1 mM,314 mg/L
same,Final viability,[3]; GMP 1 mM,86.9%
same,IVCC,[3]; GMP 1 mM,52.7 10^6 cells · Day/mL
same,Cumulative Titer,[3]; GMP 10 mM,296 mg/L
same,Final viability,[3]; GMP 10 mM,82.1%
same,IVCC,[3]; GMP 10 mM,49.7 10^6 cells · Day/mL
same,cell growth,[3]; GMP 10 mM,slight decrease
same,"Man 5 (HMG level, value relative to control)",[3]; GMP final concentration 1 mM,1.02
same,Total HMG (value relative to control),[3]; GMP final concentration 1 mM,1.01
same,"Man 5 (HMG level, value relative to control)",[3]; GMP final concentration 10 mM,0.91
same,Total HMG (value relative to control),[3]; GMP final concentration 10 mM,0.90
same,Cumulative Titer,[4]; GMP 1 mM,158 mg/L
same,Final viability,[4]; GMP 1 mM,85.5%
same,IVCC,[4]; GMP 1 mM,46.4 10^6 cells · Day/mL
same,high mannose glycans,[4]; GMP 1 mM,slight decrease
same,Cumulative Titer,[4]; GMP 10 mM,167 mg/L
same,Final viability,[4]; GMP 10 mM,77.4%
same,IVCC,[4]; GMP 10 mM,44.3 10^6 cells · Day/mL
same,cell growth,[4]; GMP 10 mM,slight decrease
same,"Man 5 (HMG level, value relative to control)",[4]; GMP final concentration 1 mM,0.97
same,Total HMG (value relative to control),[4]; GMP final concentration 1 mM,0.96
same,"Man 5 (HMG level, value relative to control)",[4]; GMP final concentration 10 mM,0.76
same,Total HMG (value relative to control),[4]; GMP final concentration 10 mM,0.76
same,Relative IVCC (% to Control),[5]; [9],79.88 % to Control
same,Relative Titer (% to Control),[5]; [9],103.8 % to Control
same,Relative Viability (% to Control),[5]; [9],87.81 % to Control
same,Relative IVCC (% to Control),[5]; [10],97.24 % to Control
same,Relative Titer (% to Control),[5]; [10],102.19 % to Control
same,Relative Viability (% to Control),[5]; [10],99.25 % to Control
same,Relative IVCC (% to Control),[6]; [9],90.77 % to Control
same,Relative Titer (% to Control),[6]; [9],94.86 % to Control
same,Relative Viability (% to Control),[6]; [9],95.28 % to Control
same,Relative IVCC (% to Control),[6]; [10],96.14 % to Control
same,Relative Titer (% to Control),[6]; [10],100.81 % to Control
same,Relative Viability (% to Control),[6]; [10],100.77 % to Control
same,Relative IVCC (% to Control),[7]; Higher Concentration per Table 1 (GMP 10 mM),95.08 % to Control
same,Relative Titer (% to Control),[7]; [9],96.14 % to Control
same,Relative Viability (% to Control),[7]; [9],91.8 % to Control
same,Relative IVCC (% to Control),[7]; Lower Concentration per Table 1 (GMP 1 mM),100.61 % to Control
same,Relative Titer (% to Control),[7]; [10],101.88 % to Control
same,Relative Viability (% to Control),[7]; [10],96.75 % to Control
same,dose dependent change in Man 5 peak (Cf),"[7]; mAb A, lower vs higher concentration",largest dose dependent decrease in Man 5 peak
same,"overall HMG content, in particular Man 5 species, of the monoclonal antibodies produced",[8],reduced
